The record followed here is PubChem BioAssay (NCI).

The structures appear in SMILES notation.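 Growth conditions: 96-well plates. Treatment: test compound, 48 hours, 5 concentrations. Analysis: linear interpolation between bracketing concentrations; unreached endpoints set to highest concentration. TGI: concentration producing complete growth inhibition.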

Common to all, as to assay: NCI-60 cell line screen, 48 h
Experiment [1] concerns OVCAR-5 ovarian.
For experiment [2], the system named is M14 melanoma.
Experiment [3] deals with SK-MEL-5 melanoma.
Experiment [4] has as its system A498 renal.
The test system of experiment [5] is HS 578T breast.
The test system of experiment [6] is RXF 393 renal.
Experiment [7] concerns SN12C renal.
The test system of experiment [8] is SK-OV-3 ovarian.
The subject of experiment [9] is CAKI-1 renal.
The subject of experiment [10] is SNB-75 CNS.
The subject of experiment [11] is COLO 205 colon.
Experiment [12] relates to HOP-62 NSCLC.
In experiment [13] the test system is UACC-257 melanoma.
Experiment [14] concerns T-47D breast.
Experiment [15] deals with HCT-15 colon.
For experiment [16], the system named is ACHN renal.
For experiment [17], the system named is NCI-H226 lung.

As for `O=[Se](O)O`, the TGI in [1] was 4.82 µM; in [2] it was 23.4 µM; in experiment [3], 8.68 µM; in experiment [4], more than 100 µM; in experiment [5], more than 100 µM; in experiment [6], 10.3 µM. Besides, the TGI in [7] was more than 100 µM; in experiment [8], 12.8 µM; in [9], 97.1 µM; in experiment [10], 7.55 µM; in experiment [11], more than 60.3 µM; in experiment [12], 1.95 µM. The TGI in [13] was more than 100 µM; in experiment [14] it was more than 62.9 µM; in experiment [15], more than 100 µM; in experiment [16], 76.6 µM; in [17] it was 2.48 µM.
For `COc1cccc(C2c3cc4c(cc3OC(Nc3ccccc3)C2C)OCO4)c1O` (stereo not drawn), the TGI was more than 93.8 µM in experiment [1]; 15.1 µM in experiment [2]; 17.7 µM in experiment [3]; 23 µM in experiment [4]; more than 62.6 µM in experiment [5]; 31.4 µM in experiment [6]. The TGI in experiment [7] was 27.8 µM; in [8], more than 71.6 µM; in experiment [9], 49.1 µM; in experiment [10] it was 26.8 µM; in [11], more than 35.6 µM; in experiment [12], 36.9 µM. The TGI is more than 57.8 µM in experiment [13]; more than 75.4 µM in experiment [14]; 48.4 µM in [15]; more than 68.3 µM in experiment [16]; 33.2 µM in experiment [17].
On to `CC(C)CCOC(=O)NC(Nc1ccc(F)cc1)(C(F)(F)F)C(F)(F)F`, for which the TGI in experiment [1], in experiment [2], in [3], in [4], in [5] and in experiment [6] was more than 100 µM throughout. For the same compound, the TGI in experiment [7] is more than 100 µM; in experiment [8], more than 100 µM; in experiment [9], more than 100 µM; in experiment [10] it was more than 100 µM; in experiment [11] it was 42.1 µM; in [12] it was more than 100 µM. The TGI in experiment [13] was more than 100 µM; in [14], 78.5 µM; in experiment [15], more than 100 µM; in [16], more than 100 µM; in [17], more than 100 µM.
`CCOC(=O)CCC(C(=O)OCC)n1nnc2cc(Nc3c(C)[n+]([O-])c4cc(F)c(OCC)cc4[n+]3[O-])ccc21` (stereo not drawn): the TGI in [1] was more than 100 µM; in [2], more than 100 µM; in [3], more than 100 µM; in [4], more than 100 µM; in experiment [5], more than 100 µM; in [6], 38.7 µM. Besides, the TGI in [7] is more than 100 µM; in experiment [8], more than 100 µM; in experiment [9], more than 100 µM; in experiment [10], 57.2 µM; in [11] it was more than 100 µM; in experiment [12] it was more than 100 µM. The TGI in [13], in experiment [14], in [15], in experiment [16] and in experiment [17] was more than 100 µM each time.
Take `O=c1[nH]nc(Cc2ccc(Cl)cc2)n1/N=C/c1ccc([N+](=O)[O-])o1`: the TGI in experiment [1] was more than 54.6 µM; in experiment [2] it was 5.68 µM; in experiment [3], more than 38.5 µM; in [4], 14.1 µM; in experiment [5] it was 8.24 µM; in [6] it was 4.8 µM. The TGI in experiment [7] is more than 100 µM; in [8], more than 36.3 µM; in [9], more than 39 µM; in [10], 31.1 µM; in [11], more than 20.1 µM; in [12], 24.8 µM. In addition, the TGI in [13] was 9.3 µM; in [14], more than 77.6 µM; in experiment [15] it was 11.5 µM; in [16] it was 11.4 µM; in [17] it was 43.3 µM.
On to `Cc1c([C@H](C)[C@@H]2NC[C@@H](C)C[C@H]2O)ccc2c1C[C@H]1[C@H]2CC=C2C[C@@H](O)CC[C@@]21C`, for which the TGI worked out at 90.8 µM in experiment [1]; 31.4 µM in experiment [2]; 22.9 µM in experiment [3]; 33.6 µM in experiment [4]; 66.6 µM in [5]; 48.2 µM in experiment [6]. The TGI was 69.5 µM in experiment [7]; 76.9 µM in experiment [8]; more than 100 µM in experiment [9]; 51.7 µM in experiment [10]; 29.4 µM in experiment [11]; 96.4 µM in [12]. The TGI in experiment [13] is 27.8 µM; in experiment [14], 53.2 µM; in experiment [15], 57 µM; in experiment [16], 37.6 µM; in experiment [17], 38.1 µM.
With `O=C(Nc1nn[nH]n1)c1nc(-c2ccccc2)cc(=O)[nH]1`, the TGI in [1], in experiment [2], in experiment [3], in experiment [4], in [5] and in experiment [6] was more than 100 µM in each case. For the same compound, the TGI in [7], in experiment [8], in [9], in [10], in [11] and in experiment [12] was more than 100 µM throughout. Besides, the TGI in experiment [13], in [14], in experiment [15], in experiment [16] and in experiment [17] was more than 100 µM each time.
Consider `Cc1cc(S(=O)(=O)/N=C(/NN)Nc2ccc(Cl)cc2)c(S)cc1Cl`, for which the TGI in [1] was 12.9 µM; in experiment [2], 34.6 µM; in experiment [3], 19.2 µM; in [4], 35.4 µM; in [5], 11.3 µM; in experiment [6] it was 78.8 µM. In addition, the TGI in [7] is 75.8 µM; in experiment [8], 49.5 µM; in [9], 54.3 µM; in experiment [10] it was 28.8 µM; in experiment [11], 33 µM; in [12], 28 µM. The TGI in experiment [13] was determined as 72.5 µM; in experiment [14], 14.8 µM; in experiment [15], 53 µM; in experiment [16], 20 µM; in experiment [17] it was 43.3 µM.
As for `CCCCCCCCOc1ccc(/C=C/C2=[N+](CCO)CCO2)cc1`, the TGI in experiment [1] was 26.4 µM; in experiment [2], 20 µM; in experiment [3], 7.04 µM; in experiment [4], 11.7 µM; in experiment [5], 17.2 µM; in [6] it was 7.91 µM. The TGI in [7] was 11.9 µM; in experiment [8], 11.9 µM; in [9] it was 19.7 µM; in experiment [10], 9.2 µM; in experiment [11], 5.69 µM; in experiment [12], 39.8 µM. The TGI in [13] was 12.4 µM; in experiment [14], 13.2 µM; in experiment [15], 25 µM; in experiment [16] it was 13 µM; in experiment [17], 12.3 µM.
